Laboratory results taken from patent US8455475B2 (Gruenenthal GmbH, priority 2009, dated 2013).

Assays:
[1] = target: T1, human B1R (bradykinin receptor 1) (Homo sapiens, UniProt P46663); experiment: FLIPR Ca2+ assay (Fluo-4) on CHO K1 cells stably transfected with the human B1R gene (hB1R cells): % inhibition at 10 μM / IC50, agonist Lys-Des-Arg9-bradykinin; assay type: cell-based; conditions: CHO-K1, human B1R
T1 construct: expressed in transfected cells; host or cells: CHO K1 cells
T1 sequence (P46663 1-353): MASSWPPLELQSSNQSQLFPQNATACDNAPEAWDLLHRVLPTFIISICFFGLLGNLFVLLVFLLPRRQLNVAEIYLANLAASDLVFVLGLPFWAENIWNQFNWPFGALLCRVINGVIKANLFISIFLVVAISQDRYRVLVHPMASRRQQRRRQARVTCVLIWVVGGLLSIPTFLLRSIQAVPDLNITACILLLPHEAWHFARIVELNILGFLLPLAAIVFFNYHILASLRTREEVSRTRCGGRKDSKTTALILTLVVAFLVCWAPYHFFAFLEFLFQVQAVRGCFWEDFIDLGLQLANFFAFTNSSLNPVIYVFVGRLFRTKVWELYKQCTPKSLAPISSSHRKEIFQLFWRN
How it was run: (§1)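 Antagonism is measured as the drop in peak Fluo-4 Ca2+ signal when the EC80 agonist follows 10–20 min compound exposure. The single-point screen uses 10 μM; IC50 uses several concentrations. Values are given as % of maximal achievable inhibition.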

[2] = target: T2, rat B1R (bradykinin receptor 1) (Rattus norvegicus, UniProt P97583); experiment: FLIPR Ca2+ assay (Fluo-4) on CHO K1 cells stably transfected with the B1R gene of the rat (rB1R cells): % inhibition at 10 μM / IC50, agonist Des-Arg9-bradykinin; assay type: cell-based; conditions: CHO-K1, rat B1R
T2 construct: expressed in transfected cells; host or cells: CHO K1 cells
T2 sequence (P97583 1-337): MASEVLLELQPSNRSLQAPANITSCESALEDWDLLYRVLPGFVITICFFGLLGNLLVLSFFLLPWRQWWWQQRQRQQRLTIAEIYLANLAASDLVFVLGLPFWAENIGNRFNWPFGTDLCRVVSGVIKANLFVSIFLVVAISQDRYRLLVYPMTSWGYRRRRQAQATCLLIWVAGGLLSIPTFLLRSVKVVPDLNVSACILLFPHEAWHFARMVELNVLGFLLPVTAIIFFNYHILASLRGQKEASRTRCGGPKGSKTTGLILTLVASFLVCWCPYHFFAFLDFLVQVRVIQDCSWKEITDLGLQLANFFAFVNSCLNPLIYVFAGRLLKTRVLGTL
How it was run: as §1

inhibition at 10 µM [1] [%]	inhibition at 10 µM [2] [%]	Compound
71	103	CN(C(=O)c1cccc(C(F)(F)F)c1Cl)C1CCc2ccc(C(=O)N3CCC4(CC3)CCN(c3ccncc3)CC4)cc21 (centres unmarked) [IND_CC-225, 2-Chloro-N-methyl-N-[6-(9-pyridin-4-yl-3,9-diazaspiro[5.5]undecane-3-carbonyl)-2,3-dihydro-1H-inden-1-yl]-3-(trifluoromethyl)-benzamide]
98	101	CN(C1CCc2ccc(C(=O)N3CCC4(CC3)CCN(c3ccncc3)CC4)cc21)S(=O)(=O)Cc1ccccc1C(F)(F)F (centres unmarked) [IND_CC-226, N-Methyl-N-[6-(9-pyridin-4-yl-3,9-diazaspiro[5.5]undecane-3-carbonyl)-2,3-dihydro-1H-inden-1-yl]-1-[2-(trifluoromethyl)-phenyl]-methanesulfonic acid amide]
100	104	O=C(NC1CCc2ccc(C(=O)N3CCC4(CC3)CCN(c3ccncc3)CC4)cc21)c1cc(F)c(F)cc1Cl (centres unmarked) [IND_CC-228, 2-Chloro-4,5-difluoro-N-[6-(9-pyridin-4-yl-3,9-diazaspiro[5.5]undecane-3-carbonyl)-2,3-dihydro-1H-inden-1-yl]-benzamide]
100	102	O=C(NC1CCc2ccc(C(=O)N3CCC4(CC3)CCN(c3ccncc3)C4)cc21)c1cc(F)c(F)cc1Cl (centres unmarked) [IND_CC-229, 2-Chloro-4,5-difluoro-N-[6-(2-pyridin-4-yl-2,8-diazaspiro[4.5]decane-8-carbonyl)-2,3-dihydro-1H-inden-1-yl]-benzamide]
100	102	CC1(C)Cc2ccc(C(=O)N3CCC4(CC3)CCN(c3ccncc3)CC4)cc2C1NC(=O)c1cc(F)c(F)cc1Cl (centres unmarked) [IND_CC-231, 2-Chloro-N-[2,2-dimethyl-6-(9-pyridin-4-yl-3,9-diazaspiro[5.5]undecane-3-carbonyl)-1,3-dihydro-inden-1-yl]-4,5-difluoro-benzamide]
96	101	O=C(NC1CCc2ccc(C(=O)N3CCC4(CC3)CCN(c3ccncc3)CC4)cc21)c1cccc(C(F)(F)F)c1Cl (centres unmarked) [IND_CC-232, 2-Chloro-N-[6-(9-pyridin-4-yl-3,9-diazaspiro[5.5]undecane-3-carbonyl)-2,3-dihydro-1H-inden-1-yl]-3-(trifluoromethyl)-benzamide]
86	98	O=C(NC1CCc2ccc(C(=O)N3CCC4(CC3)CCN(c3ccncc3)C4)cc21)c1cccc(C(F)(F)F)c1Cl (centres unmarked) [IND_CC-233, 2-Chloro-N-[6-(2-pyridin-4-yl-2,8-diazaspiro[4.5]decane-8-carbonyl)-2,3-dihydro-1H-inden-1-yl]-3-(trifluoromethyl)-benzamide]
98	96	O=C(c1ccc2c(c1)C(NS(=O)(=O)Cc1ccccc1C(F)(F)F)CC2)N1CCC2(CC1)CCN(c1ccncc1)CC2 (centres unmarked) [IND_CC-236, N-[6-(9-Pyridin-4-yl-3,9-diazaspiro[5.5]undecane-3-carbonyl)-2,3-dihydro-1H-inden-1-yl]-1-[2-(trifluoromethyl)-phenyl]-methanesulfonic acid amide]
100	98	O=C(c1ccc2c(c1)C(NS(=O)(=O)Cc1ccccc1C(F)(F)F)CC2)N1CCC2(CC1)CCN(c1ccncc1)C2 (centres unmarked) [IND_CC-237, N-[6-(2-Pyridin-4-yl-2,8-diazaspiro[4.5]decane-8-carbonyl)-2,3-dihydro-1H-inden-1-yl]-1-[2-(trifluoromethyl)-phenyl]-methanesulfonic acid amide]
99	100	CC1(C)Cc2ccc(C(=O)N3CCC4(CC3)CCN(c3ccncc3)CC4)cc2C1NS(=O)(=O)Cc1ccccc1C(F)(F)F (centres unmarked) [IND_CC-238, N-[2,2-Dimethyl-6-(9-pyridin-4-yl-3,9-diazaspiro[5.5]undecane-3-carbonyl)-1,3-dihydro-inden-1-yl]-1-[2-(trifluoromethyl)-phenyl]-methanesulfonic acid amide]
95	99	Cc1cccc(Cl)c1S(=O)(=O)NC1c2cc(C(=O)N3CCC4(CC3)CCN(c3ccncc3)CC4)ccc2CC1(C)C (centres unmarked) [IND_CC-240, 2-Chloro-N-[2,2-dimethyl-6-(9-pyridin-4-yl-3,9-diazaspiro[5.5]undecane-3-carbonyl)-1,3-dihydro-inden-1-yl]-6-methyl-benzenesulfonic acid amide]
95	101	O=C(c1ccc2c(c1)C(NS(=O)(=O)CCc1ccccc1Cl)CC2)N1CCC2(CC1)CCN(c1ccncc1)CC2 (centres unmarked) [IND_CC-241, 2-(2-Chlorophenyl)-N-[6-(9-pyridin-4-yl-3,9-diazaspiro[5.5]undecane-3-carbonyl)-2,3-dihydro-1H-inden-1-yl]-ethanesulfonic acid amide]
94	101	CC1(C)Cc2ccc(C(=O)N3CCC4(CC3)CCN(c3ccncc3)CC4)cc2C1NS(=O)(=O)CCc1ccccc1Cl (centres unmarked) [IND_CC-242, 2-(2-Chlorophenyl)-N-[2,2-dimethyl-6-(9-pyridin-4-yl-3,9-diazaspiro[5.5]-undecane-3-carbonyl)-1,3-dihydro-inden-1-yl]-ethanesulfonic acid amide]
100	99	CC1(C)CC(NC(=O)c2c(Cl)cccc2C(F)(F)F)c2cc(C(=O)N3CCC4(CC3)CCN(c3ccncc3)CC4)ccc21 (centres unmarked) [IND_CC-243, 2-Chloro-N-[3,3-dimethyl-6-(3-pyridin-4-yl-3,9-diazaspiro[5.5]undecane-9-carbonyl)-1,2-dihydro-inden-1-yl]-6-(trifluoromethyl)-benzamide]
99	103	CC1(C)CC(NC(=O)c2cc(Cl)ccc2Cl)c2cc(C(=O)N3CCC4(CC3)CCN(c3ccncc3)CC4)ccc21 (centres unmarked) [IND_CC-244, 2,5-Dichloro-N-[3,3-dimethyl-6-(3-pyridin-4-yl-3,9-diazaspiro[5.5]undecane-9-carbonyl)-1,2-dihydro-inden-1-yl]-benzamide]
100	101	O=C(NC1CCc2ccc(C(=O)N3CCC4(CCN(c5ccncc5)CC4)C3)cc21)c1cc(Cl)ccc1Cl (centres unmarked) [IND_CC-245, 2,5-Dichloro-N-[6-(8-pyridin-4-yl-2,8-diazaspiro[4.5]decane-2-carbonyl)-2,3-dihydro-1H-inden-1-yl]-benzamide]
99	100	COc1ccc(C(=O)NC2CC(C)(C)c3ccc(C(=O)N4CCC5(CC4)CCN(c4ccncc4)CC5)cc32)c(Cl)c1 (centres unmarked) [IND_CC-246, 2-Chloro-N-[3,3-dimethyl-6-(3-pyridin-4-yl-3,9-diazaspiro[5.5]undecane-9-carbonyl)-1,2-dihydro-inden-1-yl]-4-methoxy-benzamide]
99	102	COc1ccc(C(=O)NC2CCc3ccc(C(=O)N4CCC5(CCN(c6ccncc6)CC5)C4)cc32)c(Cl)c1 (centres unmarked) [IND_CC-247, 2-Chloro-4-methoxy-N-[6-(8-pyridin-4-yl-2,8-diazaspiro[4.5]decane-2-carbonyl)-2,3-dihydro-1H-inden-1-yl]-benzamide]
90	102	Cc1ccc(F)c(C(=O)NC2CC(C)(C)c3ccc(C(=O)N4CCC5(CC4)CCN(c4ccncc4)CC5)cc32)c1Cl (centres unmarked) [IND_CC-248, 2-Chloro-N-[3,3-dimethyl-6-(3-pyridin-4-yl-3,9-diazaspiro[5.5]undecane-9-carbonyl)-1,2-dihydro-inden-1-yl]-6-fluoro-3-methyl-benzamide]
99	99	Cc1ccc(F)c(C(=O)NC2CCc3ccc(C(=O)N4CCC5(CCN(c6ccncc6)CC5)C4)cc32)c1Cl (centres unmarked) [IND_CC-249, 2-Chloro-6-fluoro-3-methyl-N-[6-(8-pyridin-4-yl-2,8-diazaspiro[4.5]decane-2-carbonyl)-2,3-dihydro-1H-inden-1-yl]-benzamide]
94	100	CC1(C)CC(NC(=O)c2cc(C(F)(F)F)ccc2Cl)c2cc(C(=O)N3CCC4(CC3)CCN(c3ccncc3)CC4)ccc21 (centres unmarked) [IND_CC-250, 2-Chloro-N-[3,3-dimethyl-6-(3-pyridin-4-yl-3,9-diazaspiro[5.5]undecane-9-carbonyl)-1,2-dihydro-inden-1-yl]-5-(trifluoromethyl)-benzamide]
100	99	O=C(NC1CCc2ccc(C(=O)N3CCC4(CCN(c5ccncc5)CC4)C3)cc21)c1cc(C(F)(F)F)ccc1Cl (centres unmarked) [IND_CC-251, 2-Chloro-N-[6-(8-pyridin-4-yl-2,8-diazaspiro[4.5]decane-2-carbonyl)-2,3-dihydro-1H-inden-1-yl]-5-(trifluoromethyl)-benzamide]
